Assay results as given in US20100190832A1, “Mechanism-based inhibitors of transthyretin amyloidosis: studies with biphenyl ethers and structural templates” (NATIONAL INSTITUTE OF IMMUNOLOGY., priority 2008, published 2010).
Like-named read-outs stand apart in the source and are kept apart here.

What was measured:
WT-TTR = biological target: T1, WT-TTR (Homo sapiens, UniProt P02766); assay: Stagnant acid-mediated TTR aggregation (fibril formation) assay, turbidity at 340 nm; format: biochemical; conditions: for remaining activity at 7.2 µM / remaining activity at 21.6 µM / remaining activity at 50 µM / remaining activity at 100 µM: 72 h; for remaining activity at 50 µM: read-out: % FF at 50 μM; for remaining activity at 100 µM / inhibition at 100 µM: pH 4.4, compound 100 μM; for remaining activity at 100 µM: read-out: % FF; for inhibition at 100 µM: read-out: % Inhibition
T1 construct: made in house
Experimental: Stagnant Acid-Mediated TTR Aggregation Assay.
After 1 h, the samples were diluted with 0.5 ml of 200 mM sodium acetate buffer containing 100 mM KCl and 1 mM EDTA. Samples after mild vortexing were incubated at 37° C. for the desired amount of time without stirring to evaluate the efficacy of the inhibitors. The extent of aggregation was probed by turbidity measurements at 340 nm using Tecan GENios microplate reader. […] The extent of TTR fibril formation in the absence of inhibitor was defined to be 100%. […] All experiments were done in triplicate. […] The IC50 was determined by plotting mean of % inhibition vs log and fitted to sigmoid equation:
(§1) The experiments were conducted at 25° C. After 1 h, the samples were diluted with 0.5 mL of 200 mM sodium acetate buffer pH 4.4 containing 100 mM KCl and 1 mM EDTA, vortexed, and incubated at 37° C. for 72 h. […] The stoichiometry of the binding of the inhibitors was determined by HPLC as described by Green et al., N. S. Palaninathan, S, L, Sacchettini, J. e. […] Dissociation constant of binding of these compounds to TTR was determined by fluorescence titration, and data were fitted into the Adair equation for two bind mg.

TTR [1] = biological target: T2, TTR (Homo sapiens, UniProt P02766); assay: Time course (kinetics) of fibril formation, turbidity at 340 nm for 3 h; format: biochemical; conditions: TTR 7.2 μM, inhibitor 21.6 μM, 37° C., pH 4.4, 3 h
T2 construct: made in house
Experimental: Time Course of Fibril Formation. The kinetics of inhibition was studied by incubating […] TTR with […] of different inhibitors in 100 µl of 5 mM phosphate buffer pH 7.2 for 30 min in a 96 microwell plate. […] of 0.2 M sodium acetate buffer pH 4.4 containing 1 mM EDTA and 100 mM KCl was added. The difference in turbidity was assessed by measuring the change in absorbance at 340 nm on Tecan GEnios microplate reader using Magellan software. For kinetics, parameters were set for 30 cycles at 37° C. at the interval of 5 min each and 2 min orbital shaking (low speed) between cycles and 10 sec shaking (normal speed) before measurement. All experiments were performed in triplicates. Change in absorbance at 340 nm was plotted against time in the presence and absence of inhibitors initial rate of fibril formation was calculated from the slope by linear fitting of the data.
All experiments were performed three times in triplicates. Change in absorbance (mean of three different experiments) at 340 nm was plotted against time in the presence and absence of inhibitors. Initial rate of fibril form action was calculated from the value of the slope by linear fitting of the change in absorbance at 340 nm as a function of time.

TTR tetramer = biological target: T3, TTR tetramer (Homo sapiens, UniProt P02766); assay: Urea denaturation (tetramer dissociation, tryptophan fluorescence); format: biochemical; conditions: TTR 1.8 μM, inhibitor 5.4 μM (1:3), 6 M urea, 25° C., up to […]
T3 construct: made in house

TTR [2] = biological target: T2, TTR; assay: Dissociation constant by fluorescence titration (Adair equation, two sites); format: binding
Experimental: as §1
Small aliquots of 1 mM ligands solutions were successively added to the […] in 100 mM sodium acetate buffer pH 4.4 at […] under constant stirring. After each addition sample was left for 2 min. […] Readings were corrected for buffer blank, dilution and inner filter effect. The inner filter effect was corrected by using the following equation,
From the titration data the dissociation constant was determined by fitting data in following Adair equation for two binding sites-

TTR fibers = biological target: T4, TTR fibers (Homo sapiens, UniProt P02766); assay: Fibril disruption assay; format: biochemical; conditions: three doses (7.2 μM each), 15 days, Th-T fluorescence
T4 construct: made in house
Experimental: Fibril Disruption Assay. […] The disruption was followed for 7 days by turbidity measurements at 340 nm and Th-T fluorescence. A second dose of the inhibitor (7.2 μM) was added after 24 h of incubation, and samples were incubated and monitored further for 5-6 days. After 15-20 days of incubation, samples were examined by transmission electron microscopy (TEM). All experiments were done thrice in triplicates each time.

[3] = 50% reduction in fibril formation, TTR 7.2 μM, pH 4.4, read-out: IC50 ± SE
[4] = biphenyl ether 50 μM, WT-TTR 7.2 μM
[5] = pH 4.4, TTR 7.2 μM, inhibitor 7.2 μM (1:1), pH 4.4, 37° C., no inhibitor = 100%, read-out: % FF 1:1
[6] = pH 4.4, TTR 7.2 μM, inhibitor 21.6 μM (1:3), pH 4.4, 37° C., no inhibitor = 100%, read-out: % FF 1:3
[7] = TTR amyloid formation, 37° C., read-out: IC50
[8] = Table 3, WT-TTR 7.2 μM, read-out: IC50
[9] = pH 4.4; read-out: Dissociation Constant Kd1
[10] = pH 4.4; read-out: Dissociation Constant Kd2

Structure (SMILES) | inhibition at 21.6 µM (TTR [1]) [%] | IC50 (WT-TTR; [3]) [µM] | remaining activity at 7.2 µM (WT-TTR; [5]) [%] | remaining activity at 21.6 µM (WT-TTR; [6]) [%] | remaining activity at 100 µM (WT-TTR; WT-TTR 7.2 μM, pH 4.4, 37° C.) [%] | inhibition at 100 µM (WT-TTR; WT-TTR 7.2 μM, pH 4.4, 37° C.) [%] | further results
Oc1cc(Cl)ccc1Oc1ccc(Cl)cc1Cl [Compound 1, Triclosan, reference compound] | 62 | – | – | – | – | – | remaining activity at 7.2 µM (WT-TTR; pH 4.4, read-out: % FF 1:1): 75%; remaining activity at 21.6 µM (WT-TTR; pH 4.4, read-out: % FF 1:3): 66%; remaining activity at 50 µM (WT-TTR): 41%; inhibition at 21.6 µM (WT-TTR; pH 4.4, read-out: inhibition of fibril formation): ~24%; protein dissociates (tetramer dissociation) (TTR tetramer): 47%
COc1cc(C=O)ccc1Oc1ccccc1 [Compound 9] | > 80 | 1.31 ± 0.08 | 12 | 0 | – | – | remaining activity at 50 µM (WT-TTR; [4]): 0%; IC50 (WT-TTR; [7]): 0.47 to 3.5 µM; IC50 (WT-TTR; [8]): 1.31 µM; Kd (TTR [2]; [9]): 0.088 ± 0.0101 µM; disruption of preformed TTR fibers (TTR fibers): more effective
O=Cc1ccc(Oc2ccc(Cl)cc2Cl)c(O)c1 [Compound 2] | > 80 | – | – | – | – | – | Kd (TTR [2]; [9]): 0.0139 ± 0.00501 µM; Kd (TTR [2]; read-out: Dissociation Constant Kd2; pH 4.4): 0.525 ± 0.0601 µM
COc1cc(CCl)ccc1Oc1ccccc1 [Compound 8, 3-Methoxy-4-phenoxybenzyl chloride] | > 80 | 1.94 ± 0.09 | 25 | 0 | – | – | remaining activity at 50 µM (WT-TTR; [4]): 0%; IC50 (WT-TTR; [7]): 0.47 to 3.5 µM; IC50 (WT-TTR; [8]): 1.94 µM
COc1cc(CCl)ccc1Oc1ccc(Cl)cc1Cl [Compound 5] | > 80 | 3.16 ± 0.04 | 26 | 0 | – | – | IC50 (WT-TTR): 0.47 to 3.5 µM; remaining activity at 50 µM (WT-TTR; [4]): 0%; IC50 (WT-TTR; [8]): 3.16 µM; disruption of preformed TTR fibers (TTR fibers): more effective
OCc1ccc(Oc2ccc(Cl)cc2Cl)c(O)c1 [Compound 4] | > 80 | 1.36 ± 0.05 | 12 | 2.6 | – | – | remaining activity at 50 µM (WT-TTR; [4]): 11.5%; IC50 (WT-TTR; [7]): 0.47 to 3.5 µM; IC50 (WT-TTR; [8]): 1.36 µM; Kd (TTR [2]; [9]): 0.0003 ± 0.00014 µM; Kd (TTR [2]; [10]): 13.8 ± 1.02 µM; disruption of preformed TTR fibers (TTR fibers): more effective
Oc1cc(CCl)ccc1Oc1ccc(Cl)cc1Cl [Compound 3] | > 80 | – | – | – | – | – | remaining activity at 7.2 µM (WT-TTR; pH 4.4, read-out: % FF 1:1): 5%; remaining activity at 21.6 µM (WT-TTR; pH 4.4, read-out: % FF 1:3): 0%; remaining activity at 50 µM (WT-TTR): 0%

More lines, main results first:

inhibition at 21.6 µM (TTR [1]) [%] | IC50 (WT-TTR; [3]) [µM] | remaining activity at 7.2 µM (WT-TTR; [5]) [%] | remaining activity at 21.6 µM (WT-TTR; [6]) [%] | remaining activity at 100 µM (WT-TTR; WT-TTR 7.2 μM, pH 4.4, 37° C.) [%] | inhibition at 100 µM (WT-TTR; WT-TTR 7.2 μM, pH 4.4, 37° C.) [%] | Structure (SMILES) | further results
75 | – | – | – | – | – | N[C@H](Cc1cc(I)c(Oc2cc(I)c(O)c(I)c2)c(I)c1)C(=O)O (stereo in doubt) [Compound 13, thyroxine, reference compound] | % FF 1:1 (WT-TTR; TTR 7.2 μM, inhibitor 7.2 μM (1:1), pH 4.4, 37° C., no inhibitor = 100%): 48%; % FF 1:3 (WT-TTR; TTR 7.2 μM, inhibitor 21.6 μM (1:3), pH 4.4, 37° C., no inhibitor = 100%): 7%; protein dissociates (tetramer dissociation) (TTR tetramer): 27%
> 80 | 3.1 ± 0.05 | 21 | 0 | – | – | Oc1ccccc1-c1nnc(S)o1 [Compound 11] | IC50 (WT-TTR; [7]): 0.47 to 3.5 µM; inhibition of TTR fibrillization (WT-TTR; inhibitor 21.6 μM, TTR 7.2 μM): completely; Kd (TTR [2]; [9]): 0.042 ± 0.00235 µM; Kd (TTR [2]; [10]): 0.0726 ± 0.0103 µM
– | – | – | – | 13.8 | 86.2 | Oc1ccccc1-c1nnc(S)o1 [Compound 0350-0160] | –
– | – | – | – | 0 | 100 | Clc1ccccc1C1CC(c2cccs2)Nc2nnnn21 (centres unmarked) [Compound K832-3346] | –
– | – | – | – | 54.4 | 45.6 | Nc1nc(F)cc(Oc2ccccc2F)n1 [Compound 1544-0078] | –
– | – | – | – | 19.2 | 80.8 | Oc1ccc(-c2nnc(S)o2)cc1 [Compound 0350-0159] | –
– | – | – | – | 116 | 0 | COc1cc(C2NC(C(=O)O)CS2)ccc1O (centres unmarked) [Compound K085-0027] | –
– | – | – | – | 79.7 | 20.3 | CCCCN(CC)Cc1c(C)nc2ccc(Cl)cc2c1O [Compound 4358-1230] | –
